Measurements reported in patent publication US20150315241A1, “Antibiotic Peptides” (priority 2007, published 2015).
≈ marks a conversion by molar mass, not a printed value. Where a SMILES comes first, the peptide text is derived from it. Where no end group is shown, it is not given here. [ ]: non-standard residue; d: D form. Cha = N[C@@H](CC1CCCCC1)C(=O)O; NMeL = CN[C@@H](CC(C)C)C(=O)O; Orn = NCCC[C@H](N)C(=O)O

What was measured:
in vitro = in vitro ADME, mouse; conditions: 25% aqueous mouse serum, 37° C.; read-out: Half-life time
Description: Serum stability studies were carried out in duplicate as described by Hoffmann et al.. Briefly, 28 μL of an aqueous peptide or peptidomimetics solution (0.5 mg/mL) was added to 0.2 mL freshly pooled 25% mouse serum (Sigma-Aldrich GmbH, Taufkirchen, Germany) in water. The mixtures were incubated at 37° C. under gentle stirring. The proteins were precipitated with 40 μL of 15% aqueous TCA after incubation times of 0, 0.5, 1, 2, 4 and 6 h at 0° C. for 20 min before centrifuged (13500×G) at 4° C. for 5 min. The supernatants of all samples (240 μL) were neutralized with 1 mol/L aqueous NaOH and immediately stored at −20° C. The supernatants were analyzed by RP-HPLC using a linear acetonitrile gradient as described above with 0.1% TFA as ion pair reagent. Collected fractions of the main peaks were further analyzed by tandem mass spectrometry (MALDI-TOF/TOF-MS, 4700 Proteomics Analyzer, Applied Biosystems GmbH, Weiterstadt, Germany) in positive ion reflector mode using α-cyanohydroxycinnamic acid (50% CH3CN in 0.1% aqueous TFA) as matrix to identify the degradation products of the peptides and peptidomimetics, i.e., metabolites, at the different time points. Serum control samples consisted of 200 μL of pooled 25% mouse serum in water, which were also precipitated with 40 μL 15% aqueous TCA, as described before. Peptide reference samples consisted of 28 μL of the peptide stock solution diluted in 0.2 mL water and 40 μL of 15% aqueous trichloroacetic acid (TCA).

E. coli 45849 = assay: Growth inhibition assay (MIC); format: cell-based, Escherichia coli
Description: (§1) The minimal inhibition concentrations (MIC) of the apidaecin-derived peptides and peptide-derivatives were determined by a growth inhibition assay using a serial peptide dilution in sterilized round-bottom 96-well plates (polystyrene, U-bottom, Greiner Bio-One GmbH) with a final volume of 100 μL per well. The bacteria, e.g., E. coli BL21 A1, were grown in nutrient broth (NB, Carl Roth GmbH+Co. KG, Karlsruhe, Germany) at 37° C. over night. To each well of the 96-well plate, 50 μL of the overnight culture adjusted to 5×10^6 CFU/mL in 1% TSB were added. Lyophilized peptides and peptidomimetics were dissolved in 1% TSB (tryptic soy broth) or water to give a final concentration of 250 μg/mL. Fifty μL of the peptide or peptidomimetics solution were added to the first well of a row on the plate and mixed. Fifty μL of the first well containing the peptide solution were transferred to the second well, mixed and again 50 μL transferred to the next well and so on. Thereby, a two-fold dilution series was obtained starting at 250 μg/mL in the first well down to 120 ng/mL in the 12th well of a row giving a final peptide or peptidomimetics concentration from 125 μg/mL (well 1) to 60 ng/mL (well 12). Plates were incubated at 37° C. for 20 hrs. The absorbance was measured at 595 nm using a TECAN micro plate spectrophotometer (Tecan, Germany). All peptides and peptidomimetics were measured in triplicates. Sterilized water was used as a negative control.
(§2) The following multidrug resistant bacteria strains were tested: • Eschericha coli 45849 and D31, • Klebsiella pneumoniae 123132 and K6, • Salmonella typhi S5 and Salmonella enterica subsp. enterica serovar Typhimurium (ATCC 700408), • Rhizobium radiobacter (ATCC 15955 deposited as Agrobacterium tumefaciens).

S. typhi S5 = format: cell-based, Salmonella typhi; conditions: S5, 20 h
Description: as §1, §2

E. coli D31 = format: cell-based, Escherichia coli; conditions: D31, 20 h
Description: as §1, §2

K. Pneumonia 123132 = assay: Growth inhibition assay (MIC); format: cell-based, Klebsiella pneumoniae
Description: as §1, §2

[1] = test system: K. Pneumonia K6, ATCC 700603; assay: Growth inhibition assay (MIC); format: cell-based, Klebsiella pneumoniae; conditions: multidrug resistant strain; 1% TSB, 37° C., 20 hrs
Description: as §1, §2

[2] = test system: S. enterica subsp. Enterica serovar. typhi G10215 ATCC 700408; format: cell-based, Salmonella enterica; conditions: ATCC 700408, 20 h
Description: as §1, §2

[3] = test system: R. radiobatter ATCC 15955; assay: Growth inhibition assay (MIC); format: cell-based, Rhizobium radiobacter
Description: as §1, §2

E. coli BL 21 AI = assay: Growth inhibition assay (MIC); format: cell-based, Escherichia coli; conditions: 1% TSB, 37° C., 20 hrs
How it was run: (§3)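 Peptides were serially diluted two-fold in 1% TSB, giving final concentrations from 125 μg/mL down to 60 ng/mL, and mixed with overnight bacterial culture adjusted to 5×10^6 CFU/mL in 1% TSB. After 20 hrs at 37 °C, growth was read as absorbance at 595 nm, in triplicate, with sterile water as negative control.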

M. luteus ATCC 10240 = format: cell-based, Micrococcus luteus; conditions: ATCC 10240, 20 h
How it was run: as §3

[4] = multidrug resistant strain, 1% TSB, 37° C., 20 hrs

Molecule | half-life at 0.061 mg/mL (in vitro) [h] | MIC E. coli 45849 (E. coli 45849; 45849, 20 h) [µg/mL] | MIC S. typhi S5 (S. typhi S5) [µg/mL] | MIC E. coli D31 (E. coli D31) [µg/mL] | MIC K. Pneumonia 123132 (K. Pneumonia 123132; 20 h) [µg/mL] | MIC K. Pneumonia K6, ATCC 700603 [1] [µg/mL] | MIC S. enterica subsp. Enterica serovar. typhi G10215 ATCC 700408 [2] [µg/mL] | MIC R. radiobatter ATCC 15955 ([3]; ATCC 15955, 20 h) [µg/mL] | MIC E. coli 45849 (E. coli 45849; [4]) [µg/mL] | MIC K. Pneumonia 123132 (K. Pneumonia 123132; [4]) [µg/mL] | MIC R. radiobatter ATCC 15955 [3, 4] [µg/mL] | MIC E. coli BL 21 AI (E. coli BL 21 AI) [µg/mL] | MIC M. luteus ATCC 10240 (M. luteus ATCC 10240) [µg/mL]
CC[C@H](C)[C@H](NC(=O)[C@@H]1CCCN1C(=O)[C@H](CCCNC(=N)N)NC(=O)[C@@H]1CCCN1C(=O)[C@H](Cc1c[nH]cn1)NC(=O)[C@@H]1CCCN1C(=O)[C@@H]1CCCN1C(=O)[C@H](CCCNC(=N)N)NC(=O)[C@@H]1CCCN1C(=O)[C@H](CCCNC(=N)N)NC(=O)[C@@H]1CCCN1C(=O)[C@@H](NC(=O)[C@H](Cc1ccc(O)cc1)NC(=O)[C@@H](NC(=O)[C@@H]1CCCN1C(=O)[C@H](CCCNC(=N)N)NC(=O)[C@H](CC(N)=O)NC(=O)[C@H](CC(N)=O)NC(=O)[C@H](CCCN)NC(C)=O)C(C)C)[C@@H](C)CC)C(=O)N[C@@H](CCCNC(=N)N)C(=O)N[C@H](C(=O)O)C(C)C [compound 24] (Ac-[Orn]NNRPVYIPRPRPPHPRPIRV-OH) | 4 | – | – | – | – | – | – | – | – | – | – | – | –
CC[C@H](C)[C@H](NC(=O)[C@H](Cc1ccc(O)cc1)NC(=O)[C@@H](NC(=O)[C@@H]1CCCN1C(=O)[C@H](CCCNC(=N)N)NC(=O)[C@H](CC(N)=O)NC(=O)[C@H](CC(N)=O)NC(=O)[C@H](CCCN)NC(C)=O)C(C)C)C(=O)N1CCC[C@H]1C(=O)N[C@@H](CCCN)C(=O)N1CCC[C@H]1C(=O)N[C@@H](CCCNC(=N)N)C(=O)N1CCC[C@H]1C(=O)N1CCC[C@H]1C(=O)N[C@@H](Cc1c[nH]cn1)C(=O)N1CCC[C@H]1C(=O)N[C@@H](CCCNC(=N)N)C(=O)N[C@@H](CC1CCCCC1)C(N)=O [compound 46] (Ac-[Orn]NNRPVYIP[Orn]PRPPHPR[Cha]-NH2) | – | 32 (≈ 14.3 µM) | 32 (≈ 14.3 µM) | 16 (≈ 7.17 µM) | 32 to 64 | 32 to 64 | 8 (≈ 3.58 µM) | 10.5 (≈ 4.7 µM) | – | – | – | – | –
CC[C@H](C)[C@H](NC(=O)[C@H](Cc1ccc(O)cc1)NC(=O)[C@@H](NC(=O)[C@@H]1CCCN1C(=O)[C@H](CCCNC(=N)N)NC(=O)[C@H](CC(N)=O)NC(=O)[C@H](CC(N)=O)NC(=O)[C@@H](N)CCCN)C(C)C)C(=O)N1CCC[C@H]1C(=O)N[C@@H](CCCNC(=N)N)C(=O)N1CCC[C@H]1C(=O)N[C@@H](CCCNC(=N)N)C(=O)N1CCC[C@H]1C(=O)N1CCC[C@H]1C(=O)N[C@@H](Cc1c[nH]cn1)C(=O)N1CCC[C@H]1C(=O)N[C@@H](CCCNC(=N)N)C(=O)N(C)[C@@H](CC(C)C)C(N)=O [compound 47] (H-[Orn]NNRPVYIPRPRPPHPR[NMeL]-NH2) | – | – | 32 (≈ 14.5 µM) | 8 (≈ 3.63 µM) | – | 32 to 64 | 8 (≈ 3.63 µM) | – | 4 (≈ 1.81 µM) | 32 (≈ 14.5 µM) | 1.3 (≈ 0.589 µM) | – | –
CC[C@H](C)[C@H](NC(=O)[C@H](Cc1ccc(O)cc1)NC(=O)[C@@H](NC(=O)[C@@H]1CCCN1C(=O)[C@H](CCCNC(=N)N)NC(=O)[C@H](CC(N)=O)NC(=O)[C@H](CC(N)=O)NC(=O)[C@H](CCCN)NC(C)=O)C(C)C)C(=O)N1CCC[C@H]1C(=O)N[C@@H](CCCNC(=N)N)C(=O)N1CCC[C@H]1C(=O)N[C@@H](CCCNC(=N)N)C(=O)N1CCC[C@H]1C(=O)N1CCC[C@H]1C(=O)N[C@@H](Cc1c[nH]cn1)C(=O)N1CCC[C@H]1C(=O)N[C@@H](CCCNC(=N)N)C(=O)N[C@@H](CC(C)C)C(=O)OC [compound 48] (Ac-[Orn]NNRPVYIPRPRPPHPRL-OMe) | – | – | 4 (≈ 1.78 µM) | 64 (≈ 28.4 µM) | – | 128 (≈ 56.9 µM) | 16 (≈ 7.11 µM) | – | 4 (≈ 1.78 µM) | 32 (≈ 14.2 µM) | 1.3 (≈ 0.578 µM) | – | –
CC[C@H](C)[C@H](NC(=O)[C@H](Cc1ccc(O)cc1)NC(=O)[C@@H](NC(=O)[C@@H]1CCCN1C(=O)[C@H](CCCNC(=N)N)NC(=O)[C@H](CC(N)=O)NC(=O)[C@H](CC(N)=O)NC(=O)[C@H](CCCN)NC(C)=O)C(C)C)C(=O)N1CCC[C@H]1C(=O)N[C@@H](CCCN)C(=O)N1CCC[C@H]1C(=O)N[C@@H](CCCNC(=N)N)C(=O)N1CCC[C@H]1C(=O)N1CCC[C@H]1C(=O)N[C@@H](Cc1c[nH]cn1)C(=O)N1CCC[C@H]1C(=O)N[C@@H](CCCNC(=N)N)C(=O)N[C@@H](CC(C)C)C(=O)OC [compound 49] (Ac-[Orn]NNRPVYIP[Orn]PRPPHPRL-OMe) | – | 2 (≈ 0.906 µM) | 4 (≈ 1.81 µM) | 32 (≈ 14.5 µM) | 64 (≈ 29 µM) | 128 (≈ 58 µM) | 8 (≈ 3.62 µM) | 1.3 (≈ 0.589 µM) | – | – | – | – | –
Ac-KNNRPVYIPKPRPPHPRL-NH2 [compound 22] | – | – | 1 | 16 | – | 16 | 1 | – | 1 | 16 | <0.16 | 1.95 | 1.95
GNNRPVYIPQPRPPHPRI [compound 1] | 2 | – | – | – | – | – | – | – | – | – | – | – | –
GNNRPVYIPQPRPPHPRI-NH2 [compound 4] | 0.25 | – | – | – | – | – | – | – | – | – | – | – | –
GNNRPVYIPQPRPPHPRL [compound 2] | 2 | – | – | – | – | – | – | – | – | – | – | – | –
GNNRPVYIPQPRPPHPRPIRV-NH2 [compound 110] | 6 | – | – | – | – | – | – | – | – | – | – | – | –
GNNRPVYIPRPRPPHPRLV-NH2 [compound 25] | – | – | 2 | 64 | – | 16 | 1 | – | 1 | 16 | 0.65 | 3.91 | 1.95
KNNRPVYIPKPRPPHPRL-NH2 [compound 21] | – | – | 1 | 8 | – | 8 | 0.25 to 0.5 | – | <0.25 | 4 | 0.65 | 1.95 to 3.91 | –
